Non-standard residues stand in square brackets, D forms with d. Residues, ends and D or L forms follow the SMILES beside them. NMeH = CN[C@@H](Cc1c[nH]cn1)C(=O)O; NMeF = CN[C@@H](Cc1ccccc1)C(=O)O; NMeI = CC[C@H](C)[C@H](NC)C(=O)O; NMeT = CN[C@H](C(=O)O)[C@@H](C)O; NMeN = CN[C@@H](CC(N)=O)C(=O)O; NMeL = CN[C@@H](CC(C)C)C(=O)O; NMeV = CN[C@H](C(=O)O)C(C)C; NMeS = CN[C@@H](CO)C(=O)O; NMeA = CN[C@@H](C)C(=O)O; Sar = CNCC(=O)O
Assays:
[1] = Cytotoxicity against rat RIN5F cells at 225 uM; format: cell-based
[2] = Inhibition of amylin-induced cytotoxicity in rat RIN5F cells at 225 uM after 24 hrs by MTT assay relative to control; format: functional; design: scale not given: the % may be the effect or the level left

Molecule: CC(C)[C@@H](C(=O)N(C)CC(=O)N(C)[C@@H](CO)C(N)=O)N(C)C(=O)[C@H](CC(N)=O)N(C)C(=O)[C@H]([C@@H](C)O)N(C)C(=O)[C@@H](N)CO (H-S[NMeT][NMeN][NMeV][Sar][NMeS]-NH2)
- Activity [1]: Non-toxic

Molecule: H-STNVGS-NH2
- Activity [2]: 18%
- Activity [1]: Non-toxic

Molecule: H-FLVHSS-NH2
- Activity [2]: 20%
- Activity [1]: Non-toxic

Molecule: CC(C)C[C@@H](C(=O)N(C)[C@@H](C)C(N)=O)N(C)C(=O)[C@H](CCCNC(=N)N)N(C)C(=O)[C@H](CCC(N)=O)N(C)C(=O)[C@@H](N)[C@H](C)O
- Activity [1]: Non-toxic

Molecule: C[C@@H](O)[C@@H](C(=O)N(C)[C@@H](C)C(=O)N(C)[C@H](C(N)=O)[C@@H](C)O)N(C)C(=O)[C@@H](N)CC(N)=O (H-N[NMeT][NMeA][NMeT]-NH2)
- Activity [1]: Non-toxic

Molecule: CC(C)C[C@@H](C(=O)N(C)[C@H](C(=O)N(C)[C@@H](Cc1cnc[nH]1)C(=O)N(C)[C@@H](CO)C(=O)N(C)[C@@H](CO)C(N)=O)C(C)C)N(C)C(=O)[C@@H](N)Cc1ccccc1 (H-F[NMeL][NMeV][NMeH][NMeS][NMeS]-NH2)
- Activity [1]: Non-toxic

Molecule: CC[C@H](C)[C@@H](C(=O)N(C)[C@@H](CC(C)C)C(N)=O)N(C)C(=O)[C@H](C)N(C)C(=O)CN(C)C(=O)[C@H](Cc1ccccc1)N(C)C(=O)[C@@H](N)CC(N)=O (H-N[NMeF][Sar][NMeA][NMeI][NMeL]-NH2)
- Activity [1]: Non-toxic

Molecule: C[C@H](NC(=O)[C@@H](NC(=O)[C@@H](N)CC(N)=O)[C@@H](C)O)C(=O)N[C@H](C(N)=O)[C@@H](C)O (H-NTAT-NH2)
- Activity [2]: 25%
- Activity [1]: Non-toxic

Molecule: H-TQRLA-NH2
- Activity [2]: 50%
- Activity [1]: Non-toxic

Molecule: H-NFGAIL-NH2
- Activity [2]: 50%
- Activity [1]: Non-toxic

— ChEMBL document CHEMBL1156876, “Design and study of peptide-based inhibitors of amylin cytotoxicity” (Bioorg Med Chem Lett, 2010)
